Data: patent publication US20200268728A1, “DRUG TARGETING CANCER STEM CELL” (Sumitomo Dainippon Pharma Co., Ltd., priority 2016, published 2020)
Counter-ions that a name gives are not always drawn.

These molecules were tested on HCT-116 cells (assay: Test for inhibiting sphere-forming ability of cancer cells (Test Example 1)). Conditions: Homo sapiens, 96 h, non-adherent serum-free sphere culture, 4 days, CellTiter-Glo, read-out: IC50 (μmol/L), Sphere IC50 value, concentration for 50% inhibition of cell proliferation.
Assay type: cell-based, human
Protocol: The reliable methods established for measuring the self-renewal ability of cells which is one of the CSC's properties include a method for measuring the sphere-forming ability of cancer cells in non-adherent condition in the absence of serum (Cancer Res 65, 5506-5511 (2005)). HCT-116 cells were available from the American Type Culture Collection (ATCC). HCT-116 cells were cultured at 37° C. and 5% CO2 using the McCoy's 5a medium containing 10% fetal bovine serum (FBS), 100 U/ml penicillin, and 100 μg/ml streptomycin. HCT-116 cells were seeded in a 384 Well Black Clear Bottom Ultra-Low Attachment Microplate (Corning Cat. No. 3827) in an amount of 350-800 cells/well using the DMEM/F12 medium containing 2% B27 supplement (GIBCO), 20 ng/mL epidermal growth factor (EGF) (peprotech), 10 ng/mL basic fibroblast growth factor (bFGF) (peprotech), 5 μg/mL insulin (Sigma), and 1% penicillin/streptomycin. The test compounds were added into each well to adjust the final concentration of DMSO to 0.1%, and the cells were cultured for 4 days. The number of viable cells in each well was then measured with CellTiter-Glo® Luminescent Cell Viability Assay (Promega) to calculate the concentration of each test compound for 50% inhibition of cell proliferation (Sphere IC50 value; μmol/L).
The experiment of Test Example 1 was performed for the compounds of each Example.

Row | SMILES | IC50 [µmol/L]
1 | O=C(Nc1ccc2c(c1)CCCN2)c1cn(Cc2cc(F)c(F)c(F)c2)cn1 [Example 33, N-(1,2,3,4-Tetrahydroquinolin-6-yl)-1-(3,4,5-trifluorobenzyl)-1H-imidazole-4-carboxamide dihydrochloride] | 0.66
2 | O=C(Nc1cn(Cc2cccc(C(F)(F)F)c2)cn1)c1cnc(CO)c(C(F)(F)F)c1 [Example 25] | 0.07
3 | O=C(Nc1ccc(CO)nc1)c1cn(Cc2cc(F)c(F)c(F)c2)cn1 [Example 28, N-[6-(Hydroxymethyl)pyridin-3-yl]-1-(3,4,5-trifluorobenzyl)-1H-imidazole-4-carboxamide] | < 0.01
4 | O=C(Nc1ccc2nc(CO)ccc2c1)c1cn(Cc2cc(F)c(F)c(F)c2)cn1 [Example 29] | 0.079
5 | O=C(Nc1cn(Cc2cccc(C(F)(F)F)c2)cn1)c1cc(CO)on1 [Example 27] | 0.653
6 | Cc1cc(C(=O)Nc2cn(Cc3cc(F)c(F)c(F)c3)cn2)cnc1CO [Example 55, 6-(Hydroxymethyl)-5-methyl-N-[1-(3,4,5-trifluorobenzyl)-1H-imidazol-4-yl]nicotinamide] | < 0.01
7 | O=C(Nc1cn(Cc2cccc(C(F)(F)F)c2)cn1)c1ccc(CO)cn1 [Example 15, 5-(Hydroxymethyl)-N-{1-[3-(trifluoromethyl)benzyl]-1H-imidazol-4-yl}picolinamide] | 0.03
8 | O=C(Nc1cn(Cc2cc(F)c(F)c(F)c2)cn1)c1ccc(CO)nc1 [Example 20, 6-(Hydroxymethyl)-N-[1-(3,4,5-trifluorobenzyl)-1H-imidazol-4-yl]nicotinamide] | 0.007
9 | O=C(Nc1cn(Cc2cccc(C(F)(F)F)c2)cn1)c1csc(CO)n1 [Example 18] | 0.024
10 | O=C(Nc1cn(Cc2cccc(Cl)c2)cn1)c1ccc(CO)nc1 [Example 21] | 0.056
11 | Nc1cc(C(=O)Nc2cn(Cc3cc(F)c(F)c(F)c3)cn2)cnc1CO [Example 59, 5-amino-6-(hydroxymethyl)-N-[1-(3,4,5-trifluorobenzyl)-1H-imidazol-4-yl]nicotinamide] | 0.01
12 | O=C(Nc1cn(Cc2cc(F)c(F)c(F)c2)cn1)c1csc(CO)n1 [Example 19] | 0.077
13 | O=C(Nc1cn(Cc2cccc(C(F)(F)F)c2)cn1)c1cnc(CO)c(C(F)F)c1 [Example 23, 5-(difluoromethyl)-6-(hydroxymethyl)-N-{1-[3-(trifluoromethyl)benzyl]-1H-imidazol-4-yl}nicotinamide] | < 0.01
14 | O=C(Nc1cn(Cc2cccc(C(F)(F)F)c2)cn1)c1ccc(CO)nc1 [Example 22, 6-(hydroxymethyl)-N-{1-[3-(trifluoromethyl)benzyl]-1H-imidazol-4-yl}nicotinamide] | < 0.01
15 | Nc1cc(C(=O)Nc2cn(Cc3cccc(C(F)(F)F)c3)cn2)cnc1CO [Example 58, 5-Amino-6-(hydroxymethyl)-N-{1-[3-(trifluoromethyl)benzyl]-1H-imidazol-4-yl}nicotinamide] | 0.029
16 | O=C(Nc1cn(Cc2cccc(C(F)(F)F)c2)cn1)c1cnc(CO)cn1 [Example 26] | 0.053

Same assay, conditions: non-adherent serum-free sphere culture, 4 days, CellTiter-Glo, read-out: IC50 (μmol/L), Sphere IC50 value, concentration for 50% inhibition of cell proliferation

Row | SMILES | IC50 [µmol/L]
17 | COc1ccc(C(=O)Nc2cn(Cc3ccc(F)cc3F)cn2)cc1OC [Example 12, N-[1-(2,4-difluorobenzyl)-1H-imidazol-4-yl]-3,4-dimethoxybenzamide] | 0.09

These molecules were tested on HCT116 cells (assay: Combination with Example 24, inhibitory effect on sphere-forming ability (Test Example 6)). Conditions: HCT116 sphere culture, test compound combined with Example 24 (2-1000 nmol/L), 4 days.
Assay type: cell-based, human

Row | SMILES | sCI, minimum (Ld)/(Lc)
18 | CC(C)n1c(/C=C/C(O)CC(O)CC(=O)O)c(-c2ccc(F)cc2)c2ccccc21 (stereo not shown) [Fluvastatin] | 0.163
19 | CC(C)c1c(C(=O)Nc2ccccc2)c(-c2ccccc2)c(-c2ccc(F)cc2)n1CC[C@@H](O)C[C@@H](O)CC(=O)O [Atorvastatin] | 0.3
20 | CC(=O)c1cc2c(o1)C(=O)c1ccccc1C2=O [Napabucasin] | 0.159
21 | CCN(CC)CCNC(=O)c1c(C)[nH]c(/C=C2\C(=O)Nc3ccc(-c4csc(-c5ccccc5)n4)cc32)c1C [Amcasertib] | 0.017
22 | CC[C@H](C)C(=O)O[C@H]1C[C@H](O)C=C2C=C[C@H](C)[C@H](CC[C@@H](O)C[C@@H](O)CC(=O)O)[C@H]21 [Pravastatin] | 0.810

What follows are molecules tested on H460 cells in the same assay as above. Conditions: H460 sphere culture, test compound combined with Example 24 (2-1000 nmol/L), 4 days.
Assay type: cell-based, human
Protocol: After the culture, CellTiterGlo (Promega) was added into all of the wells, and the plate is allowed to stand at room temperature for 10 minutes to measure the intensity of luminescence of each well. […] The formula for calculating the rate is shown below.
Sphere formation rate (%)=(Lsample)/(Lcontrol)×100
The value obtained by dividing the sphere formation rate by 100 and subtracting the calculated value from 1 is defined as a sphere formation inhibitory effect. The formula for calculating the effect is shown below.
Sphere formation inhibitory effect=1−(Sphere formation rate/100)
Also, the measured cell survival rate of the combination was defined as (Ld).
The minimum value thereof (sCI) was used as the criteria for screening.

Row | SMILES | sCI, minimum (Ld)/(Lc)
23 | C=CCNC1=C2C[C@@H](C)C[C@H](OC)[C@H](O)[C@@H](C)/C=C(\C)[C@H](OC(N)=O)[C@@H](OC)/C=C\C=C(/C)C(=O)NC(=CC1=O)C2=O [Tanespimycin] | 0.386
24 | CC(C)(C)Cn1c(N)nc2ccc(-c3[nH]c(C(C)(C)C)nc3-c3ccc(F)cc3)nc21 [LY2228820] | 0.020
25 | COc1ccc(-c2ccc3c(N4CCOC[C@@H]4C)nc(N4CCOC[C@@H]4C)nc3n2)cc1CO [AZD8055] | 0.651
26 | Cc1cccc(Nc2nc(-c3ccncc3)cs2)c1 [STF-62247] | 0.221
27 | Cn1cncc1[C@@](N)(c1ccc(Cl)cc1)c1ccc2c(c1)c(-c1cccc(Cl)c1)cc(=O)n2C [Tipifarnib] | 0.564
28 | COc1ccc2cc(-c3nc(-c4ccc([S+](C)[O-])cc4)[nH]c3-c3ccncc3)ccc2c1 (stereo not shown) [Tie2 kinase inhibitor] | 0.123
29 | COc1ccc(COc2cc3oc(=O)c4cc(C(C)O)ccc4c3cc2OC)cc1 (stereo not shown) [Palomid 529] | 0.428
30 | Cc1ccc(F)c(NC(=O)Nc2ccc(-c3cccc4[nH]nc(N)c34)cc2)c1 [Linifanib] | 0.142
31 | CN1CCN(c2nc(C3=C(c4c[nH]c5ccccc45)C(=O)NC3=O)c3ccccc3n2)CC1 [Sotrastaurin] | 0.030
32 | Cc1ccc(Nc2nccc(N(C)c3ccc4c(C)n(C)nc4c3)n2)cc1S(N)(=O)=O [Pazopanib] | 0.507
33 | Cc1ccc(NC(=O)c2ccc(CN3CCN(C)CC3)cc2)cc1Nc1nc(-c2cccnc2)cs1 [Masitinib] | 0.010
34 | Cc1c[nH]c(-c2cnc(NCCNc3ccc(C#N)cn3)nc2-c2ccc(Cl)cc2Cl)n1 [CHIR-99021] | 0.378
35 | Cc1c(NC(=O)OC[C@@H]2COCCN2)cn2ncnc(Nc3ccc4c(cnn4Cc4cccc(F)c4)c3)c12 [BMS-599626] | 0.081
36 | C=C1/C(=C\C=C2/CCC[C@]3(C)[C@@H]([C@H](C)/C=C/[C@H](C)C(C)C)CC[C@@H]23)C[C@@H](O)C[C@@H]1O [Doxercalciferol] | 0.304
37 | O=C(CCCCCCC(=O)Nc1ccccc1)NO [Vorinostat] | 0.573
38 | Cn1cc(-c2ccc3nnc(C(F)(F)c4ccc5ncccc5c4)n3n2)cn1 [JNJ-38877605] | 0.711
39 | CCc1cc(Nc2nccc(-c3c(-c4ccc(OC)c(C(=O)Nc5c(F)cccc5F)c4)nc4ccccn34)n2)c(OC)cc1N1CCC(N2CCN(S(C)(=O)=O)CC2)CC1 [GSK1904529A] | 0.166
40 | Cc1cc2c(C(C)C)c(O)c(O)c(C=O)c2c(O)c1-c1c(C)cc2c(C(C)C)c(O)c(O)c(C=O)c2c1O [Gossypol] | 0.026
